This data set can be described thus: Human HepG2 cell viability assay in 384 well format. In kind it is toxicity, cell-based. Set-up: dose 125 nL, time 70.5 hour; cytotoxicity at 70.5 h: concentration not given beside the values. Particulars: HepG2 cells, read-out: Inhibition.
As to `O=C(NCCCn1nc2ccccn2c1=O)Nc1ccc(F)cc1F`, the cytotoxicity at 70.5 h was -8.62%.

Take `O=C(CN1CCN(C(=O)c2sccc2C2CC2)CC1)NC1CC1`: the cytotoxicity at 70.5 h was found to be 8.72%.

As for `O=C(CCCc1ccccn1)N1CCC(Nc2cccnn2)CC1`, the cytotoxicity at 70.5 h was -0.523%.

For `Cc1nn(C)cc1-c1cc(-c2cn(C)nc2C)n(CC(=O)NC2CC2)n1`, the cytotoxicity at 70.5 h was -7.88%.

`CN(CCN1CCOCC1)C(=O)CCCc1ccccc1`: the cytotoxicity at 70.5 h was -2.26%.

Take `COc1cc(C(=O)NC(C)(C)CN2CCN(C)CC2)c2ccccc2n1`: the cytotoxicity at 70.5 h was -11.5%.

`CC(c1ncc(-c2ccccc2)o1)N1CCN(C(=O)N(C)C)CC1` (stereo not given): the cytotoxicity at 70.5 h was -2.55%.

Consider `COc1cc(OC)cc(-c2noc(CC(N)c3ccccc3)n2)c1` (stereo not given), for which the cytotoxicity at 70.5 h was -5.26%.

Consider `COc1ccc(OC)c(CNC(=O)N2CCC(n3cncn3)CC2)c1`, for which the cytotoxicity at 70.5 h came to 35%.

For `Cc1nnc(NCC(c2cccs2)N2CCCC2)c(C#N)c1C` (stereo not given), the cytotoxicity at 70.5 h is -2.36%.

On to `CNC(=O)CN1CCCC(Cc2ccccc2OC)C1` (stereo not given), for which the cytotoxicity at 70.5 h was 5.69%.

With `CCC(O)CN1CCN(C(=O)c2cccn2Cc2cccs2)CC1` (stereo not given), the cytotoxicity at 70.5 h is -17.9%.

`CCn1ccnc1CN1CCN(CC(=O)NC(C)(C#N)C2CC2)CC1` (stereo not given): the cytotoxicity at 70.5 h was -6.12%.

Consider `Cc1ccccc1C(C(=O)N1CCN(C(=O)c2ccc[nH]2)CC1)N(C)C` (stereo not given), for which the cytotoxicity at 70.5 h was -15.2%.

As to `Cc1nnc(CN2C[C@H]3CC[C@@H]2CN(C2Cc4ccccc4C2)C3)o1`, the cytotoxicity at 70.5 h came out at 4.16%.

With `CNC(=O)Cn1ccc2ccc(NC(=O)C(C)C)cc21`, the cytotoxicity at 70.5 h was -16.4%.

As for `CN(C)C(=O)N1CCN(CCCc2ccccc2)[C@H]2CS(=O)(=O)C[C@H]21`, the cytotoxicity at 70.5 h is -1.41%.

Take `O=C(NC1CC1)N1CC[C@H]2[C@H]1CCN2c1nncs1`: the cytotoxicity at 70.5 h was 6.09%.

As to `O=C(c1ccsc1)N1CCO[C@@H]2CN(Cc3ccccn3)CC[C@@H]2C1`, the cytotoxicity at 70.5 h turned out to be 8.56%.

For the compound `CNC(=O)C1CCCN(c2nc3c(-c4ccccc4)csc3c(=O)[nH]2)C1` (stereo not given), the cytotoxicity at 70.5 h worked out at 4.92%.

On to `CCc1nc(C2CCCN2CC(=O)N2CCc3ccccc32)no1` (stereo not given), for which the cytotoxicity at 70.5 h was -5.32%.

`O=C(NCCSc1ccccc1F)NCc1cccnc1`: the cytotoxicity at 70.5 h was -6.59%.

Regarding `Cc1cnn(CC2CCCCN2C(=O)Cc2c(C)noc2C)c1` (stereo not given), the cytotoxicity at 70.5 h is -9.25%.

Take `Cc1nc(C)n(CC2CCCN2CCC(=O)N2CCCCC2)n1` (stereo not given): the cytotoxicity at 70.5 h is -5.35%.

Regarding `O=C(Cc1ccsc1)N1CCCCC1c1ccn2ccnc2n1` (stereo not given), the cytotoxicity at 70.5 h amounted to 8.15%.

For the compound `O=C(Cc1c[nH]c2ncccc12)NCC(O)c1ccsc1` (stereo not given), the cytotoxicity at 70.5 h was found to be 0.0548%.

Take `Cc1ccc(S(=O)(=O)NCCNC(=O)c2cncnc2C)cc1`: the cytotoxicity at 70.5 h is -2.92%.

In the case of `CC(C)(C)c1noc(CCCC(=O)NCC2CCS(=O)(=O)C2)n1` (stereo not given), the cytotoxicity at 70.5 h was found to be 0.495%.

`Cc1nn(C)c2nc(C3CC3)c(Cl)c(C(=O)O)c12`: the cytotoxicity at 70.5 h was found to be 0.618%.

For the compound `COCCN1CCCC1Cn1nc(C)cc1C` (stereo not given), the cytotoxicity at 70.5 h amounted to 8.46%.

For the compound `Cc1cc(C2CCCN2CCCS(=O)(=O)c2ccccc2)no1` (stereo not given), the cytotoxicity at 70.5 h is -4.85%.

Turning to `Cc1csc(CN(C)S(=O)(=O)c2ccc(C)c(N(C)C)c2)n1`, the cytotoxicity at 70.5 h was -11.1%.

On to `COc1ccc(N2CCN(C(=O)[C@@H]3C[C@@H](O)CN3)CC2(C)C)cc1`, for which the cytotoxicity at 70.5 h turned out to be 6.62%.

With `Cc1cc(N(C)C)nc(N2CCn3c(nnc3C(C)C)C2)n1`, the cytotoxicity at 70.5 h worked out at 13.6%.

For the compound `CN(C)C(=O)[C@H]1C[C@H]2OCC[C@H]2N(Cc2ccc3ccccc3n2)C1`, the cytotoxicity at 70.5 h turned out to be 17.2%.

For `Cc1cccc(CNc2ccc(C(=O)N3CCC(CO)CC3)cc2)c1`, the cytotoxicity at 70.5 h is -5.19%.

On to `Cc1nc(C)n(C2CCCN(C(=O)c3ccc(CN(C)C)cc3)C2)n1` (stereo not given), for which the cytotoxicity at 70.5 h was -4.23%.

In the case of `CCS(=O)(=O)c1ccc2oc([C@H]3CCN(Cc4ccncc4)C3)nc2c1`, the cytotoxicity at 70.5 h came out at 6.63%.

As for `CCCc1nc(C(=O)N2CCN(C(=O)c3ccc(OC)cc3)CC2)cs1`, the cytotoxicity at 70.5 h was -5.88%.

Regarding `Cc1ccc(OCCC(=O)NC(C)c2ccncc2)cc1` (stereo not given), the cytotoxicity at 70.5 h was -2.16%.

Turning to `Cn1ccc(CN2CCC(NC(=O)NC3CCCCC3)CC2)cc1=O`, the cytotoxicity at 70.5 h was -5.64%.

Consider `CCN(CC)C(=O)c1ccc(NC(=O)CNc2ccc(Br)cc2F)cc1`, for which the cytotoxicity at 70.5 h was 4.87%.

In the case of `O=C(C1CC1)N1C[C@H]2CCCN(S(=O)(=O)c3ccc4c(c3)CCC4)[C@H]2C1`, the cytotoxicity at 70.5 h was 3.41%.

Turning to `CCC(C(=O)NC)N(c1cccc(C)c1)S(C)(=O)=O` (stereo not given), the cytotoxicity at 70.5 h worked out at 11.9%.

As for `CNC(=O)[C@H]1C[C@@H]2CCN(Cc3nccs3)C[C@H]2O1`, the cytotoxicity at 70.5 h is -6.34%.

Regarding `COC(=O)C1CCCN1C(=O)c1ccc(-n2nc(C)cc2C)cc1` (stereo not given), the cytotoxicity at 70.5 h is -4.44%.

As to `O=C(c1ccco1)N1CCC2(CC1)CCN(c1ncccn1)CC2`, the cytotoxicity at 70.5 h stood at 4.21%.

As to `COC[C@@]12CCO[C@@H]1CCN(C(=O)Cc1cccc(F)c1)C2`, the cytotoxicity at 70.5 h is 2.86%.

`c1cc(C2CCN(c3cnccn3)CC2)ccn1`: the cytotoxicity at 70.5 h turned out to be 17.3%.

For `COc1ccc(OCc2nccc(-c3cc(C(=O)O)ccn3)n2)cc1`, the cytotoxicity at 70.5 h is -2.16%.

On to `CN1CCC(c2nnc(CN3CCCC3)n2C2CC2)CC1`, for which the cytotoxicity at 70.5 h is -6.39%.

As to `O=S(=O)(c1cccc(Cl)c1)N1CCCC(Cn2cncn2)C1` (stereo not given), the cytotoxicity at 70.5 h is -4.36%.

For the compound `CC(=O)N1CCC2(CCN(CC(C)C)C2)C1` (stereo not given), the cytotoxicity at 70.5 h was -5.21%.

Consider `Cc1ccc(=O)n(CC2(O)CCN(Cc3ccoc3)CC2)n1`, for which the cytotoxicity at 70.5 h was -3.06%.

As for `Cc1nc(C(=O)N2CCOCC2)cc(N2CCC(C(N)=O)CC2)n1`, the cytotoxicity at 70.5 h was -0.347%.

With `CCc1c(O)nc2nc(N3CCCC3)nn2c1C`, the cytotoxicity at 70.5 h is -5.54%.

Regarding `CCCc1cnc(C)nc1N1CCC(Cc2cccc(C(N)=O)c2)C1` (stereo not given), the cytotoxicity at 70.5 h is -2.67%.

For the compound `CCCc1ccc(S(=O)(=O)NC2(CC(N)=O)CCC2)cc1`, the cytotoxicity at 70.5 h worked out at 1.66%.

Regarding `Cc1noc(-c2ccc(N3CCCC(C(N)=O)C3)nc2)n1` (stereo not given), the cytotoxicity at 70.5 h is -0.883%.

For `O=C(NCCC1CCCCO1)c1coc(COc2ccc(F)cc2)n1` (stereo not given), the cytotoxicity at 70.5 h was -6.58%.

`O=C(CCn1cccc1)NCc1ccc(CN2CCCCCC2)o1`: the cytotoxicity at 70.5 h is 0.95%.

As to `CN(CC(=O)N(C)C1CC1)C1CCN(c2ccc(Cl)cc2)CC1`, the cytotoxicity at 70.5 h turned out to be 24.7%.

For `CN1C(=O)CN(C(=O)c2ccc(=O)n(C)c2)c2ccccc21`, the cytotoxicity at 70.5 h is 1.56%.

Turning to `Cc1ccc(C)c(SCC(=O)Nc2cccc(C(=O)N(C)C)n2)c1`, the cytotoxicity at 70.5 h is 11.9%.

`O=C(NCC1CCCO1)c1ccc(S(=O)(=O)NCCc2cn[nH]c2)cc1` (stereo not given): the cytotoxicity at 70.5 h was -4.87%.

In the case of `CCc1cnc(C)nc1N1CCN(C(N)=O)CC1`, the cytotoxicity at 70.5 h was -12.6%.

On to `CN(C)CCN(Cc1ccccn1)C(=O)Nc1cccc(F)c1`, for which the cytotoxicity at 70.5 h is -9.47%.

Regarding `CCN(CC)CCn1cc(NC2CCN(C(C)(C)C)CC2)cn1`, the cytotoxicity at 70.5 h was found to be 5.68%.

`Cn1cc(C(=O)N2CCCC2c2noc(C3CC3)n2)c2ccccc21` (stereo not given): the cytotoxicity at 70.5 h was -3.41%.

Consider `CC(C)c1noc(CN2CCC3(CCCO3)CCC2=O)n1` (stereo not given), for which the cytotoxicity at 70.5 h is -0.624%.
